Patent publication US4695647A, “Aromatic derivatives of 13-azaprostanoic acid” (Drug Science Foundation, priority 1984, dated 1987)
Entries after “also recorded” stand apart in the source; their conditions may differ. Where two headings read alike, the source gives them in different places. Blank lines part the entries; values can stand above or below the compound they belong to.

Experiments:
human platelets = assay: Inhibition of U46619-induced human platelet aggregation; format: cell-based; settings: for IC50: Homo sapiens, Platelet, 1 min
Protocol: Platelet rich plasma was prepared from four healthy, normal volunteers using standard techniques.
Platelets were aggregated with U46619 (0.5 to 1.0 μM) to produce an
average % aggregation at one minute of 61.3 ± 3.1. The ID50 value
were calculated based on the inhibition of U46619 induced aggregation one
minute after its addition.
Platelets were aggregated with U46619 (0.09 to 0.65 μM) to produce an
average % aggregation at one minute of 47 ± 3. The ID50 values
The potency of PTA-OH and PTA-OM for antagonism of U46619 induced human platelet aggregation was determined as described above.

endotoxic shock = assay: Protection against endotoxic shock (Salmonella endotoxin); format: in vivo, young male Long-Evans rats
Description: Based on the protective biological response observed and the absence of change in plasma thromboxane levels, it is concluded that trans-13 APT is a thromboxane receptor antagonist.

platelet aggregation [1] = settings: 13-APA itself, stated as background for comparison; cited from earlier work
Solubility = format: physicochemical
platelet aggregation [2] = assay: U46619 and arachidonic acid-induced platelet aggregation; format: cell-based, human
Protocol: Compound A was prepared in a manner analogous to 13 APA itself, i.e., by borohydride reduction of the Schiff base obtained from the reaction of tyramine and ethyl-2-oxo-cyclopentane-heptanoate. This reaction produces about equal amounts of the cis and trans ethyl esters, which were separated on preparative silica gel TLC and subsequently hydrolyzed to the free acids by refluxing in aqueous NaOH.

canine saphenous veins = assay: Antagonism of vascular smooth muscle contraction in canine saphenous veins; format: cell-based
[3] = Table I, U46619 0.5 to 1.0 μM, average % aggregation at one minute 61.3 ± 3.1, indomethacin 10 μM, one minute preincubation, platelet rich plasma, read-out: ID50 (the source's name)
[4] = Table 2, U46619 0.09 to 0.65 μM, average % aggregation at one minute 47 ± 3, indomethacin 10 μM, one minute preincubation, read-out: ID50 (the source's name)
[5] = 30 mg/kg i.p., vs vehicle pretreated animals
[6] = pinane analogs, determined as described above, read-out: ID50 (antagonism of U46619 induced human platelet aggregation)

IC50 (human platelets; [3]): 14.8 ± 2.2 µM
Structure (SMILES): CCCCCCCN[C@H]1CCC[C@H]1CCCCCCC(=O)O (relative stereo) [13-cis-azaprostanoic acid, reference compound]

IC50 (human platelets; [4]): 9.8 ± 1.3 µM
Structure (SMILES): O=C(O)CCCCCC[C@H]1CCC[C@H]1NCC(O)c1ccc(O)c(I)c1 (relative stereo) [13-cis-iodo APO]

IC50 (human platelets; [3]): 13.6 ± 1.9 µM
Structure (SMILES): CCCCCCCN[C@@H]1CCC[C@H]1CCCCCCC(=O)O (relative stereo) [13-trans-azaprostanoic acid, reference compound]

IC50 (human platelets; [3]): 17.6 ± 4.4 µM
Structure (SMILES): O=C(O)CCCCCC[C@@H]1CCC[C@@H]1NCCc1ccc(O)cc1 (relative stereo) [Compound 13-cis-APT, 7-(2-p-hydroxphenethylamino-cyclopentyl)-heptanoic acid]

Structure (SMILES): O=C(O)CCCCCC[C@@H]1CCC[C@H]1NCCc1ccc(O)cc1 (relative stereo) [Compound 13-trans-APT, 7-(2-p-hydroxphenethylamino-cyclopentyl)-heptanoic acid]
IC50 (human platelets; [3]): 9.9 ± 1.7 µM
plasma thromboxane B2 levels (endotoxic shock; 30 mg/kg i.p., 30 minutes and four hours after endotoxin, vs vehicle): elevated to the same degree
6-keto-PGF1α levels (endotoxic shock; [5]): significantly lower
endotoxic shock as measured by hypoglycemia, thrombocytopenia and tissue infarct effects (endotoxic shock; [5]): less subject to endotoxic shock
protection against endotoxic shock (endotoxic shock; 30 mg/kg, intraperitoneal pretreatment, endotoxin intravenously): protected against endotoxic shock
protection against pathophysiologic sequelae of S. enteritidis endotoxemia (endotoxic shock; 30 mg/kg, rats): effective in protecting rats

Structure (SMILES): CCCCCCCN[C@H]1CCC[C@@H]1CCCCCCC(=O)O [Compound 13-APA, 13-Azaprostanoic acid]
relative potency of isomers (platelet aggregation [1]): much more potent as the trans form

IC50 (human platelets; [4]): 6.4 ± 0.7 µM
IC50 (human platelets; [3]): 16 ± 3.2 µM
Structure (SMILES): O=C(O)CCCCCC[C@@H]1CCC[C@@H]1NCC(O)c1ccc(O)cc1 (stereo partly drawn) [Compound 13-cis-APO, 7-(2-p-hydroxyphenylethanolamino-cyclopentyl)-heptanoic acid]

IC50 (human platelets; [3]): 8.3 ± 1.4 µM
solubility in ethanol (Solubility): practically insoluble
Structure (SMILES): O=C(O)CCCCCC[C@@H]1CCC[C@H]1NCC(O)c1ccc(O)cc1 (stereo partly drawn) [Compound 13-trans-APO, 7-(2-p-hydroxyphenylethanolamino-cyclopentyl)-heptanoic acid]

Structure (SMILES): O=C(O)CCCCCCC1CCCC1NCCc1ccc(O)cc1 (stereo not drawn) [Compound A, 7-(2-p-hydroxyphenethylamino-cyclopenthyl)-heptanoic acid]
activity and relative potency of isomers in platelet aggregation (platelet aggregation [2]): the two isomers were active, with the trans more potent than the cis; also recorded: significantly more potent than the parent 13-APA

IC50 (human platelets; [6]): 0.52 ± 0.07 µM
Structure (SMILES): CC1(C)C2CC(NCC(O)Cc3ccc(O)cc3)C(C/C=C\CCCC(=O)O)C1C2 (stereo not drawn) [PTA-OH, 13-aza-16-(p-hydroxyphenyl) pinane TxA2]
relative potency as inhibitor of human platelet aggregation (human platelets): more potent than 13-aza-16-(p-methoxyphenyl) pinane TxA2 (PTA-OM)

IC50 (human platelets; [6]): 1.56 ± 0.35 µM
Structure (SMILES): COc1ccc(CC(O)CNC2CC3CC(C2C/C=C\CCCC(=O)O)C3(C)C)cc1 (stereo not drawn) [PTA-OM, 13-aza-16-(p-methoxyphenyl) pinane TxA2]
relative potency as antagonist of vascular smooth muscle contraction (canine saphenous veins): more potent than PTA-OH

IC50 (human platelets; [6]): 0.38 ± 0.05 µM
Structure (SMILES): CC1(C)C2CC(NCC(O)Cc3ccc(O)c(I)c3)C(C/C=C\CCCC(=O)O)C1C2 (stereo not drawn) [^127 I-PTA-OH]
